Assay results as given in patent publication US8685538B2, “Stable polyelectrolyte coated nanoparticles” (Northeastern University, priority 2009, dated 2014).

Experiment: Zeta potential (surface potential) measurement after each polyelectrolyte coating
Assay type: physicochemical
Description: 5 mg paclitaxel or atavoquone was dissolved in 5 mL of a 60% ethanol/water or a 60% acetone/water solution in a glass tube. This solution was ultrasonicated at 100% amplitude for 2 min, and then 1 mL of a 5 mg/mL polylysine, polyethylenimine, or protomine sulphate solution was added. This was then ultrasonicated for 1 min while adding water at certain speeds and volumes (e.g., 1 mL/min until 5 mL to 10 mL was reached). This was then ultrasonicated for another 30 min. After sonication, the zeta potential of the sample was measured to assure recharging of the formed paclitaxel nanocrystals to positive. Layer-by-layer (LbL) coating with 2 layers of BSA/PS (bovine serum albumin/protamine sulfate) was performed (as described in, e.g., WO2009/012303), followed by SEM readings and measurement of zeta potential.
After each coating, a sample was taken and surface potential was measured using a Zeta potential analyzer.
PAH and PSS were alternately added to the curcumin nanoparticles using the LbL procedure. […] PAH adsorption during nanoparticles synthesis converted the potential to +30±2 mV. Next, anionic PSS adsorption changed the potential to −53±2 mV, followed by +19±2 mV with the addition of PAH, and again to −50±2 mV with the addition of PSS. Therefore, multiple layers of polycations and polyanions, i.e., (PAH/PSS)2, were coated onto the curcumin nanoparticles.

zeta potential (initial paclitaxel compound, no coating, FIG. 4) | zeta potential (bare, initial potential, FIG. 7) | SMILES
about −60 mV |  | CC(=O)O[C@H]1C(=O)[C@@]2(C)[C@H]([C@H](OC(=O)c3ccccc3)[C@]3(O)C[C@H](OC(=O)[C@H](O)[C@@H](NC(=O)c4ccccc4)c4ccccc4)C(C)=C1C3(C)C)[C@]1(OC(C)=O)CO[C@@H]1C[C@@H]2O [paclitaxel]
 | −50±2 mV | COc1cc(/C=C/C(=O)CC(=O)/C=C/c2ccc(O)c(OC)c2)ccc1O [bare curcumin microparticles, curcumin]
